Source: patent US11629139B2 (priority 2017, dated 2023)
pEC50, pIC50: −log10 of the molar value. Values after ≈ are worked out from the molar mass of the structure shown.

Columns and labels:
[1] = human, microsomes
[2] = plasma
[3] = pH 7.4
[4] = mouse, in vivo; for AUClast / T1/2 / Tmax: po, 50 mg/kg
[5] = system: vesicular stomatitis virus particles (VSV) pseudotyped with EboV Zaire GP; details: cited from earlier work
[6] = system: Lassa fever virus (LFV) GP; details: cited from earlier work
VSV G = details: cited from earlier work
EBOV Kikwit = assay: microbe, parasite or virus in culture; assay type: cell-based, Ebola virus; details: Zaire ebolavirus, HeLa, read-out: EBOV Kikwit(Hela) EC50
in vivo = details: mouse, po
in vitro [7] = details: mouse, plasma
Ebola virus (Mayinga) = assay: microbe, parasite or virus in culture; assay type: cell-based; details: Zaire ebolavirus, HeLa, read-out: EBOV Maiynga) (Hela) EC50
EBOV Makona = assay: microbe, parasite or virus in culture; assay type: cell-based, Ebola virus; details: Zaire ebolavirus, HeLa, read-out: EBOV Makona (Hela) EC50
EBOV G-A82 = assay: microbe, parasite or virus in culture; assay type: cell-based, Ebola virus; details: Zaire ebolavirus, HeLa, read-out: EBOV G-A82 (Hela) EC50
[8] = not given; remark: listed apart in the source
[9] = system: vesicular stomatitis virus particles (VSV) pseudotyped with EboV Zaire GP; assay: microbe, parasite or virus in culture; assay type: cell-based; details: Vesicular stomatitis virus
in vitro [10] = details: mouse, microsomes, pH 7.4, MLM T½ (min)
physchem = details: pH 7.4, aqueous buffer, kinetic from dmso stock

SMILES | HLM T½ [1] | MLM T½ (mouse, microsomes) | MLM, T½ (min) (ritonavir 3 μM) (mouse, microsomes) | Mouse PPB (% bound) [2] | Kinetic solubility [3] | C@12 hr [4] | Cl_obs [4] | AUClast [4] | T1/2 [4] | Tmax [4] | further results
[2H]C([2H])(c1cc(Cl)ccc1N)N1CCN(C(=O)CNC(=O)C2CC23CCC(F)(F)CC3)CC1 (single isomer, unassigned; (-)) [(−)-1413] | 0.267 h | 3 min | 91 min | 87.9% | 78 µM | 2.0 µM | 15.5 mL/min/kg | 120.9 µM·h | 3.2 h | 1.7 h | Increase of stability in mouse liver microsomes by ritonavir: 10- to 30 fold
[2H]C([2H])(c1cc(Cl)ccc1NCc1ccc(S(C)(=O)=O)cc1)N1CCN(C(=O)CNC(=O)C2CC23CCC(F)(F)CC3)CC1 (single isomer, unassigned; (-)) [(−)-1503] | 0.017 h | 2 min | 87 min | 99.8% | 4 µM | 5.7 µM | 12.5 mL/min/kg | 107.5 µM·h | 1.7 h | 7.3 h | Plasma concentration after 12 hours relative to in vitro IC50 against rVSV EBOV infection in 50% human serum [4]: 50 fold
O=C(CC12CC3CC(CC(C3)C1)C2)NCC(=O)N1CCN(Cc2ccccc2)CC1 [Compound 3.0] |  |  |  |  |  |  |  |  |  |  | Infection of Vero cells by VSV pseudotyped with EboV Zaire GP [5]: inhibits infection; Infection of Vero cells by VSV pseudotyped with Lassa fever virus (LFV) GP [6]: not; Infection of Vero cells by VSV particles with VSV G (VSV G): not
CS(=O)(=O)c1ccc(COc2ccc(Cl)cc2CN2CCN(C(=O)CNC(=O)C3CC34CCC(F)(F)CC4)CC2)cc1 (stereo not shown) [Compound 1476] |  |  |  |  |  | 14 µM |  |  |  |  | pEC50 (EBOV Kikwit): 6.68; AUC (in vivo): 314 µM·h; Cmax (in vivo): 23 µM; half-life (in vivo): 6.1 h; m-μsome T1/2 (with 3 μM of Ritonavir) (mouse, microsomes, pH 7.4): 2.83 h; fraction unbound (in vitro [7]; m-plasma protein binding): 0.013; pEC50 (Ebola virus (Mayinga)): 6.38; pEC50 (EBOV Makona): 6.85; pEC50 (EBOV G-A82): > 7.10
O=C(CC12CC3CC(CC(C3)C1)C2)NCC(=O)N1CCN(Cc2ccccc2OCc2ccc(-c3ncco3)cc2)CC1 [Compound 1803, 2-((3r,5r,7r)-Adamantan-1-yl)-N-(2-(4-(2-((4-(oxazol-2-yl)benzyl)oxy)benzyl)piperazin-1-yl)-2-oxoethyl)acetamide] |  |  |  |  |  |  |  |  |  |  | Mouse plasma stability (% at 4 hours) [8]: 37%; pIC50 [9]: 6.57; fraction unbound (in vitro [7]; Mouse PPB (% bound)): 0.003; half-life (in vitro [10]): 1 min; solubility kinetic (physchem): 5 µM (≈ 2.91 µg/mL)
